# Measured values taken from patent US9630977B2, “Cephalosporin derivatives and pharmaceutical compositions thereof” (Legochem Biosciences, Inc., priority 2011, dated 2017).
# Where two headings read alike, the source gives them in different places.
# Experiments:
# Assay in all cases: In vitro antibacterial activity test (broth microdilution)
# Type in all cases: cell-based
# [1] = test system: P. aeruginosa 1912E; conditions: Pseudomonas aeruginosa, 1912E
# Summary of the method: (§1)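 Susceptibility of clinical bacterial isolates is measured by CLSI broth microdilution. Final drug concentrations range 0.0626–128 ug/mL in 2.5% (V/V) DMSO; MIC90 recorded as lowest concentration blocking visible growth of 90% of organisms.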
# [2] = test system: A. baumannii 52; conditions: Acinetobacter baumannii
# Summary of the method: as §1
# [3] = test system: E. coli AG100; conditions: Escherichia coli
# Summary of the method: as §1
# [4] = test system: M. catarrhalis 2524; conditions: Moraxella catarrhalis
# Summary of the method: as §1
# [5] = test system: K. pneumoniae β9; conditions: Klebsiella pneumoniae
# Summary of the method: as §1
# [6] = test system: A. baumannii 49
# Summary of the method: as §1
# [7] = test system: P. aeruginosa 40
# Summary of the method: as §1
# [8] = test system: K. pneumoniae 2011E; conditions: Klebsiella pneumoniae, 2011E
# Summary of the method: as §1
# [9] = test system: E. coli β4; conditions: Escherichia coli
# Summary of the method: as §1
# [10] = test system: K. pneumoniae β11; conditions: Klebsiella pneumoniae
# Summary of the method: as §1
# [11] = test system: A. calcoaceticus ATCC15473; conditions: Acinetobacter calcoaceticus
# Summary of the method: as §1
# [12] = test system: P. aeruginosa 37; conditions: Pseudomonas aeruginosa, 37, P. aeruginosa 37
# Summary of the method: as §1
# [13] = test system: K. pneumoniae β13; conditions: Klebsiella pneumoniae
# Summary of the method: as §1
# [14] = test system: P. aeruginosa 43; conditions: Pseudomonas aeruginosa
# Summary of the method: as §1
# [15] = test system: E. cloacae β19; conditions: Enterobacter cloacae
# Summary of the method: as §1
# [16] = test system: K. pneumoniae β14; conditions: Klebsiella pneumoniae
# Summary of the method: as §1
# [17] = test system: A. baumannii 46
# Summary of the method: as §1
# [18] = test system: P. aeruginosa 6065Y; conditions: Pseudomonas aeruginosa
# Summary of the method: as §1
# [19] = test system: K. pneumoniae β10; conditions: Klebsiella pneumoniae
# Summary of the method: as §1
# [20] = Acinetobacter baumannii, 49, A. baumannii 49
# [21] = ATCC15473, A. calcoaceticus ATCC15473
# [22] = Acinetobacter baumannii, 46, A. baumannii 46
# [23] = A. baumannii 52, read-out: MIC90
# [24] = AG100, E. coli AG100, read-out: MIC90
# [25] = M. catarrhalis 2524, read-out: MIC90
# [26] = K. pneumoniae β9, read-out: MIC90
# [27] = Acinetobacter baumannii, A. baumannii 49, read-out: MIC90
# [28] = Pseudomonas aeruginosa, 40, P. aeruginosa 40, read-out: MIC90
# [29] = K. pneumoniae 2011E, read-out: MIC90
# [30] = K. pneumoniae β11, read-out: MIC90
# [31] = A. calcoaceticus ATCC15473, read-out: MIC90
# [32] = K. pneumoniae β13, read-out: MIC90
# [33] = P. aeruginosa 43, read-out: MIC90
# [34] = Acinetobacter baumannii, A. baumannii 46, read-out: MIC90
# [35] = K. pneumoniae β10, read-out: MIC90
Compound,MIC90 ([1]; read-out: MIC90) [µg/mL],MIC90 [1] [µg/mL],MIC90 [2]; 52 [µg/mL],MIC90 ([3]; AG100) [µg/mL],MIC90 [4]; 2524 [µg/mL],MIC90 [5] [µg/mL],"MIC90 [6, 20] [µg/mL]","MIC90 ([7]; Pseudomonas aeruginosa, 40) [µg/mL]",MIC90 [8] [µg/mL],MIC90 [9] [µg/mL],MIC90 [10] [µg/mL],"MIC90 [11, 21] [µg/mL]",MIC90 [12] [µg/mL],MIC90 [13] [µg/mL],MIC90 [14]; 43 [µg/mL],MIC90 [15] [µg/mL],MIC90 [16] [µg/mL],"MIC90 [17, 22] [µg/mL]",MIC90 ([18]; 6065Y) [µg/mL],MIC90 [19] [µg/mL],also measured
CC(C)(O/N=C(\C(=O)N[C@@H]1C(=O)N2C(C(=O)[O-])=C(/C=C/C[n+]3cnc(N)c(NCCCN)c3)CSC12)c1nsc(N)n1)C(=O)O (stereo partly drawn) [Compound 56],,2,16,0.5,< 0.0625,1,32,8,2,1,2,1,8,1,64,4,2,4,16,1,
CC(C)(O/N=C(\C(=O)N[C@@H]1C(=O)N2C(C(=O)[O-])=C(/C=C/C[n+]3cnc(N)c(NC(=O)CCCN)c3)CSC12)c1nc(N)sc1Cl)C(=O)O (stereo partly drawn) [Compound 64],,4,32,0.5,< 0.0625,2,32,8,2,1,8,1,16,2,128,8,2,16,32,1,
CC(C)(O/N=C(\C(=O)N[C@@H]1C(=O)N2C(C(=O)[O-])=C(/C=C/C[n+]3cnc(N)c(NCCCCN)c3)CSC12)c1nc(N)sc1Cl)C(=O)O (stereo partly drawn) [Compound 58],,8,64,0.5,< 0.0625,8,32,16,2,2,8,4,32,4,> 128,8,4,32,32,2,

# Continued, in another order:
MIC90 ([1]; read-out: MIC90) [µg/mL],Compound,MIC90 [1] [µg/mL],MIC90 [2]; 52 [µg/mL],MIC90 ([3]; AG100) [µg/mL],MIC90 [4]; 2524 [µg/mL],MIC90 [5] [µg/mL],"MIC90 [6, 20] [µg/mL]","MIC90 ([7]; Pseudomonas aeruginosa, 40) [µg/mL]",MIC90 [8] [µg/mL],MIC90 [9] [µg/mL],MIC90 [10] [µg/mL],"MIC90 [11, 21] [µg/mL]",MIC90 [12] [µg/mL],MIC90 [13] [µg/mL],MIC90 [14]; 43 [µg/mL],MIC90 [15] [µg/mL],MIC90 [16] [µg/mL],"MIC90 [17, 22] [µg/mL]",MIC90 ([18]; 6065Y) [µg/mL],MIC90 [19] [µg/mL],also measured
2,C[C@H](O/N=C(\C(=O)N[C@@H]1C(=O)N2C(C(=O)[O-])=C(C[n+]3cnc(N)c(NCCNC(=O)c4cc(=O)c(O)c[nH]4)c3)CSC12)c1nc(N)sc1Cl)C(=O)O (stereo partly drawn) [Compound 17],,,,,,,,,,,,,,,,,,,,"MIC90 [2, 23]: 2 µg/mL; MIC90 [3, 24]: 1 µg/mL; MIC90 [4, 25]: 0.125 µg/mL; MIC90 [5, 26]: 1 µg/mL; MIC90 [6, 27]: 4 µg/mL; MIC90 [7, 28]: 8 µg/mL; MIC90 [8, 29]: 4 µg/mL; MIC90 ([9]; read-out: MIC90): 4 µg/mL; MIC90 [10, 30]: 32 µg/mL; MIC90 [11, 31]: 0.5 µg/mL; MIC90 ([12]; read-out: MIC90): 8 µg/mL; MIC90 [13, 32]: 1 µg/mL; MIC90 [14, 33]: 2 µg/mL; MIC90 ([15]; read-out: MIC90): 2 µg/mL; MIC90 ([16]; read-out: MIC90): 32 µg/mL; MIC90 [17, 34]: 16 µg/mL; MIC90 ([18]; read-out: MIC90): 2 µg/mL; MIC90 [19, 35]: 4 µg/mL"
0.5,CC(C)(O/N=C(\C(=O)N[C@@H]1C(=O)N2C(C(=O)[O-])=C(C[n+]3cnc(N)c(NCCNC(=O)c4cc(=O)c(O)cn4O)c3)CSC12)c1nc(N)sc1Cl)C(=O)O (stereo partly drawn) [Compound 15],,,,,,,,,,,,,,,,,,,,"MIC90 [2, 23]: 2 µg/mL; MIC90 [3, 24]: 2 µg/mL; MIC90 [4, 25]: 0.25 µg/mL; MIC90 [5, 26]: 4 µg/mL; MIC90 [6, 27]: 8 µg/mL; MIC90 [7, 28]: 0.5 µg/mL; MIC90 [8, 29]: 8 µg/mL; MIC90 ([9]; read-out: MIC90): 16 µg/mL; MIC90 [10, 30]: 64 µg/mL; MIC90 [11, 31]: 0.5 µg/mL; MIC90 ([12]; read-out: MIC90): 0.125 µg/mL; MIC90 [13, 32]: 2 µg/mL; MIC90 [14, 33]: 0.25 µg/mL; MIC90 ([15]; read-out: MIC90): 32 µg/mL; MIC90 ([16]; read-out: MIC90): 128 µg/mL; MIC90 [17, 34]: 128 µg/mL; MIC90 ([18]; read-out: MIC90): 1 µg/mL; MIC90 [19, 35]: 0.25 µg/mL"
1,CC(C)(O/N=C(\C(=O)N[C@@H]1C(=O)N2C(C(=O)[O-])=C(C[n+]3cnc(N)c(NCCNC(=O)c4cc(=O)c(O)cn4O)c3)CSC12)c1nsc(N)n1)C(=O)O (stereo partly drawn) [Compound 16],,,,,,,,,,,,,,,,,,,,"MIC90 [2, 23]: 32 µg/mL; MIC90 [3, 24]: 1 µg/mL; MIC90 [4, 25]: 1 µg/mL; MIC90 [5, 26]: 128 µg/mL; MIC90 [6, 27]: > 128 µg/mL; MIC90 [7, 28]: 0.25 µg/mL; MIC90 [8, 29]: 8 µg/mL; MIC90 ([9]; read-out: MIC90): 4 µg/mL; MIC90 [10, 30]: > 128 µg/mL; MIC90 [11, 31]: 0.25 µg/mL; MIC90 ([12]; read-out: MIC90): 0.5 µg/mL; MIC90 [13, 32]: 32 µg/mL; MIC90 [14, 33]: 2 µg/mL; MIC90 ([15]; read-out: MIC90): 16 µg/mL; MIC90 ([16]; read-out: MIC90): 128 µg/mL; MIC90 [17, 34]: 2 µg/mL; MIC90 ([18]; read-out: MIC90): 2 µg/mL; MIC90 [19, 35]: 2 µg/mL"
